In patent US20230142338A1, “THIOPHENYL DERIVATIVES USEFUL FOR MODULATING NUCLEIC ACID SPLICING” (REMIX THERAPEUTICS INC., priority 2020, published 2023):

Columns and labels:
Assay type in all cases: cell-based
Target C CJ mRNA = assay: Gene panel canonical junction qPCR assay: Target C; settings: Table 3, concentration having 50% response in CJ decrease, read-out: Target C IC50 (decrease in CJ mRNA levels)
Procedure: (§1) Compounds described herein were used to modulate RNA transcript abundance in cells. The expression of a target mRNA was measured by detecting the formation of an exon-exon junction in the canonical transcript (CJ). A compound mediated exon-inclusion event was detected by observing an increase in formation of a new junction with an alternative exon (AJ). Real-time qPCR assays were used to detect these splicing switches and interrogate the potency of various compounds towards different target genes. A high-throughput real time quantitative PCR (RT-qPCR) assay was developed to measure these two isoforms of the mRNA (CJ and AJ) for an exemplary gene, HTT, together with a control housekeeping gene, GAPDH or GUSB or PPIA, used for normalization. Briefly, the A673 or K562 cell line was treated with various compounds described herein (e.g., compounds of Formula (I)). After treatment, the levels of the HTT mRNA targets were determined from each sample of cell lysate by cDNA synthesis followed by qPCR.
(§2) The A673 cell line was cultured in DMEM with 10% FBS. Cells were diluted with full growth media and plated in a 96-well plate (15,000 cells in 100 ul media per well). The plate was incubated at 37° C. with 5% CO2 for 24 hours to allow cells to adhere. An 11-point 3-fold serial dilution of the compounds was made in DMSO then diluted in media in an intermediate plate. Compounds were transferred from the intermediate plate to the cell plate with the top dose at a final concentration of 10 uM in the well. Final DMSO concentration was kept at or below 0.25%. The cell plate was returned to the incubator at 37° C. with 5% CO2 for an additional 24 hours.
(§3) The K562 cell line was cultured in IMDM with 10% FBS. For K562, cells were diluted with full growth media and plated in either a 96-well plate (50,000 cells in 50 uL media per well) or a 384-well plate (8,000-40,000 cells in 45 uL media per well). An 11-point 3-fold serial dilution of the compounds were made in DMSO then diluted in media in an intermediate plate. Compound was transferred from the intermediate plate to the cell plate with the top dose at a final concentration of 10 uM in the well. Final DMSO concentration was kept at or below 0.25%. Final volume was 100 uL for 96-well plate and 50 uL for 384-well plate. The cell plate was then placed in an incubator at 37° C. with 5% CO2 for 24 hours.
(§4) The cells were then gently washed with 50 uL-100 uL cold PBS before proceeding to addition of lysis buffer. 30 uL-50 uL of room temperature lysis buffer with DNAse I (and optionally RNAsin) was added to each well. Cells were shaken/mixed thoroughly at room temperature for 5-10 minutes for lysis to take place and then 3 uL-5 uL of room temperature stop solution was added and wells were shaken/mixed again. After 2-5 minutes, the cell lysate plate was transferred to ice for RT-qPCR reaction setup. The lysates could also be frozen at −80° C. for later use.
(§5) In some cases, a direct lysis buffer was used. An appropriate volume of 3× lysis buffer (10 mM Tris, 150 mM NaCl, 1.5%-2.5% Igepal and 0.1-1 U/uL RNAsin, pH 7.4) was directly added to either K562 or A673 cells in media and mixed by pipetting 3 times. The plates were then incubated at room temperature with shaking/rocking for 20-50 minutes to allow for lysis to take place. After this time, the cell lysate plate was transferred to ice to set up for the RT-qPCR reactions. The lysates could also be frozen at −80° C. for later use.
(§6) To set up 10 uL RT-qPCR reactions, cell lysates were transferred to 384-well qPCR plates containing the master mix according to the table below. The plates were sealed, gently vortexed, and spun down before the run. The volumes were adjusted accordingly in some instances where the reaction was carried in 20 uL. The table below summarizes the components of the RT-qPCR reactions:
(§7) The RT-qPCR reaction was performed using a QuantStudio (ThermoFisher) under the following fast cycling conditions. […]

SMN2 CJ mRNA = assay: Gene panel canonical junction qPCR assay: SMN2; settings: Table 3, concentration having 50% response in CJ decrease, read-out: SMN2 IC50 (decrease in CJ mRNA levels)
Procedure: as §1, §2, §3, §4, §5, §6, §7

HTT AJ mRNA = assay: Splicing assay (RT-qPCR): increase in HTT alternative junction (AJ) mRNA; settings: A673 or K562 cells, 24 hours treatment; concentration having 50% response in AJ mRNA increase
Procedure: as §1, §2, §3, §4, §5, §6, §7

HTT CJ mRNA [1] = assay: Gene panel canonical junction qPCR assay: HTT; settings: Table 3, concentration having 50% response in CJ decrease, read-out: HTT IC50 (decrease in CJ mRNA levels)
Procedure: as §1, §2, §3, §4, §5, §6, §7

HTT CJ mRNA [2] = assay: Splicing assay (RT-qPCR): decrease in HTT canonical junction (CJ) mRNA; settings: A673 or K562 cells, 24 hours treatment; concentration having 50% response in CJ mRNA decrease
Procedure: as §1, §2, §3, §4, §5, §6, §7

Row | Compound | IC50 (Target C CJ mRNA) | IC50 (SMN2 CJ mRNA) | AC50 (HTT AJ mRNA) | IC50 (HTT CJ mRNA [1]) | AC50 (HTT CJ mRNA [2])
1 | Cc1cn2cc(NC(=O)c3cc(Cl)c(N4CCNC(C)C4)s3)cc(F)c2n1 (stereo not drawn) [Compound 187] | > 10 nM | > 10 nM | > 10000 nM | > 10 nM | > 10000 nM
2 | Cc1cn2cc(NC(=O)c3cc(F)c(C4CCNCC4)s3)cc(F)c2n1 [Compound 188, 4-fluoro-N-[8-fluoro-2-methylimidazo[1,2-a]pyridin-6-yl]-5-(piperidin-4-yl)thiophene-2-carboxamide] | > 10 nM | 100 to 1000 nM | > 10000 nM | 100 to 1000 nM | 100 to 1000 nM
3 | COc1cc(N2CCNCC2=O)sc1C(=O)Nc1cc(F)c2nc(C)cn2c1 [Compound 189, N-[8-fluoro-2-methylimidazo[1,2-a]pyridin-6-yl]-3-methoxy-5-(2-oxopiperazin-1-yl)thiophene-2-carboxamide] | > 10 nM | > 10 nM | > 10000 nM | > 10 nM | > 10000 nM
4 | Cc1cn2cc(NC(=O)c3sc(C4CCNCC4)cc3F)cc(C)c2n1 [Compound 180, N-[2,8-dimethylimidazo[1,2-a]pyridin-6-yl]-3-fluoro-5-(piperidin-4-yl)thiophene-2-carboxamide] | 1000 to 10000 nM | < 100 nM | 1000 to 10000 nM | 100 to 1000 nM | 100 to 1000 nM
5 | Cc1cn2nc(NC(=O)c3sc([C@H]4CCN[C@H](C)C4)cc3F)cc(C)c2n1 [Compound 103, N-[2,8-dimethylimidazo[1,2-b]pyridazin-6-yl]-3-fluoro-5-[(2R,4S)-2-methylpiperidin-4-yl] thiophene-2-carboxamide] | 1000 to 10000 nM | < 100 nM | 100 to 1000 nM | 100 to 1000 nM | 100 to 1000 nM
6 | Cc1cn2cc(NC(=O)c3sc(N4CCC(N(C)C)C4)cc3F)cc(F)c2n1 (stereo not drawn) [Compound 138, 5-[3-(dimethylamino)pyrrolidin-1-yl]-3-fluoro-N-[8-fluoro-2-methylimidazo[1,2-a]pyridin-6-yl]thiophene-2-carboxamide] | > 10 nM | 100 to 1000 nM | > 10000 nM | 1000 to 10000 nM | 1000 to 10000 nM
7 | Cc1cn2cc(NC(=O)c3sc(N4CC5(CNC5)C4)cc3F)cc(F)c2n1 [Compound 134, 5-[2,6-diazaspiro[3.3]heptan-2-yl]-3-fluoro-N-[8-fluoro-2-methylimidazo[1,2-a]pyridine-6-yl]thiophene-2-carboxamide] | 1000 to 10000 nM | 100 to 1000 nM | 1000 to 10000 nM | 1000 to 10000 nM | 1000 to 10000 nM
8 | Cc1cn2cc(NC(=O)c3sc(N(C)C4CC(C)(C)NC(C)(C)C4)cc3F)cc(F)c2n1 [Compound 149, 3-fluoro-N-[8-fluoro-2-methylimidazo[1,2-a]pyridin-6-yl]-5-[methyl(2,2,6,6-tetramethylpiperidin-4-yl)amino]thiophene-2-carboxamide] | > 10 nM | 100 to 1000 nM | > 10000 nM | > 10 nM | > 10000 nM
9 | Cc1cn2cc(NC(=O)c3sc(C4C[C@@H](C)N[C@@H](C)C4)cc3F)cc(F)c2n1 (stereo partly drawn) [Compound 147, 5-[(2R,6S)-2,6-dimethylpiperidin-4-yl]-3-fluoro-N-[8-fluoro-2-methylimidazo[1,2-a]pyridin-6-yl]thiophene-2-carboxamide] | 1000 to 10000 nM | < 100 nM | 1000 to 10000 nM | 100 to 1000 nM | 100 to 1000 nM
10 | Cc1cn2cc(NC(=O)c3sc([C@H]4CCN[C@H](C)C4)cc3F)cc(F)c2n1 [Compound 117, 3-fluoro-N-[8-fluoro-2-methylimidazo[1,2-a]pyridin-6-yl]-5-[(2R,4S)-2-methylpiperidin-4-yl]thiophene-2-carboxamide] | 1000 to 10000 nM | 100 to 1000 nM | 1000 to 10000 nM | 100 to 1000 nM | 100 to 1000 nM
11 | Cc1cn2cc(NC(=O)c3sc(C4CCN(C)CC4)cc3F)cc(F)c2n1 [Compound 145, 3-fluoro-N-[8-fluoro-2-methylimidazo [1,2-a]pyridin-6-yl]-5-(1-methylpiperidin-4-yl)thiophene-2-carboxamide] | 1000 to 10000 nM | 100 to 1000 nM | 1000 to 10000 nM | 1000 to 10000 nM | 1000 to 10000 nM
12 | Cc1cn2nc(NC(=O)c3sc([C@@H]4CCN[C@H](C)C4)cc3F)cc(C)c2n1 [Compound 101, N-[2,8-dimethylimidazo[1,2-b]pyridazin-6-yl]-3-fluoro-5-[(2R,4R)-2-methylpiperidin-4-yl] thiophene-2-carboxamide] | 100 to 1000 nM | < 100 nM | 100 to 1000 nM | 100 to 1000 nM | 100 to 1000 nM
13 | CC1CN(c2cc(F)c(C(=O)Nc3ccc4cn(C)nc4c3)s2)CCN1 (stereo not drawn) [Compound 162, 3-fluoro-N-(2-methylindazol-6-yl)-5-(3-methylpiperazin-1-yl)thiophene-2-carboxamide] | > 10 nM | > 10 nM | > 10000 nM | > 10 nM | > 10000 nM
14 | Cc1nc2c(F)cc(NC(=O)c3sc(N4CCNC(C)C4)cc3F)cc2s1 (stereo not drawn) [Compound 165, 3-fluoro-N-(4-fluoro-2-methyl-1,3-benzothiazol-6-yl)-5-(3-methylpiperazin-1-yl)thiophene-2-carboxamide] | 100 to 1000 nM | 1000 to 10000 nM | > 10000 nM | > 10 nM | > 10000 nM
15 | Cc1cn2cc(NC(=O)c3cc(Cl)c(C4CCNCC4)s3)cc(F)c2n1 [Compound 193, 4-chloro-N-[8-fluoro-2-methylimidazo[1,2-a]pyridin-6-yl]-5-(piperidin-4-yl) thiophene-2-carboxamide] | > 10 nM | 1000 to 10000 nM | > 10000 nM | > 10 nM | > 10000 nM
16 | Cc1cn2cc(NC(=O)c3sc([C@H]4CCN[C@H](C)C4)cc3F)cc(C(F)(F)F)c2n1 [Compound 197, 3-fluoro-N-[2-methyl-8-(trifluoromethyl)imidazo[1,2-a]pyridin-6-yl]-5-[(trans-)-2-methylpiperidin-4-yl]thiophene-2-carboxamide] | > 10 nM | 100 to 1000 nM | 1000 to 10000 nM | 1000 to 10000 nM | 1000 to 10000 nM
17 | Cn1cc2c(F)cc(NC(=O)c3sc(C4CCNCC4)cc3F)cc2n1 [Compound 183, 3-fluoro-N-(4-fluoro-2-methylindazol-6-yl)-5-(piperidin-4-yl)thiophene-2-carboxamide] | > 10 nM | > 10 nM | > 10000 nM | > 10 nM | > 10000 nM
18 | Cc1cn2nc(NC(=O)c3sc(C4CCNCC4)cc3F)nc2c(C)n1 [Compound 192, N-[6,8-dimethyl-[1,2,4]triazolo[1,5-a]pyrazin-2-yl]-3-fluoro-5-(piperidin-4-yl)thiophene-2-carboxamide] | > 10 nM | > 10 nM | > 10000 nM | > 10 nM | > 10000 nM
